Assay results reported in patent US20240343704A1, “HALO-SUBSTITUTED AMINO PYRIDINE COMPOUNDS AS INHIBITORS OF THE HAEMATOPOIETIC PROGENITOR KINASE 1 (HPK1)” (priority 2021, published 2024).

Experiments:
[1] = target: T1, Recombinant (1-346) HPK1 (h) (Homo sapiens, UniProt Q92918); test: HPK1 Human STE Kinase Enzymatic Radiometric Assay; type: biochemical; conditions: read-out: HPK1 IC50 nM Range*
T1 construct: Recombinant (1-346) HPK1 (h) is incubated with 8 mM MOPS pH 7.0
T1 sequence (Q92918 1-346): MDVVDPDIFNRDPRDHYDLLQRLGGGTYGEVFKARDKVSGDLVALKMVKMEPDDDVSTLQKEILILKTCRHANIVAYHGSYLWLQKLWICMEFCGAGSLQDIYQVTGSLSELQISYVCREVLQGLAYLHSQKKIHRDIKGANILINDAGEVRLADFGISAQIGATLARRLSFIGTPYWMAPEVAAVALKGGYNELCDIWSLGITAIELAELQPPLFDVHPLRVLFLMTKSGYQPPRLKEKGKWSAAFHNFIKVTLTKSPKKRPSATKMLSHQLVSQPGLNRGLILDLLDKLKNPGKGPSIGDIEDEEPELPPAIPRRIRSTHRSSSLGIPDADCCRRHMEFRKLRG
Experimental: A stock solution of 10 mM of test compound is prepared in DMSO. The compound plate was prepared by 3-fold and 9-point serial dilutions. […] The reaction is initiated by The addition of the Mg/ATP mix. After incubation for 40 minutes at RT, the reaction is stopped by the addition of phosphoric acid to a concentration of 0.5%.

Lck (h) = Lck (h) (Homo sapiens, UniProt P06239); test: Lck Human  Kinase Enzymatic Radiometric Assay; type: biochemical; conditions: read-out: Lck IC50 nM Range*
Experimental: Lck (h) is incubated with 50 mM Tris pH 7.5, 0.1 mM EGTA, 0.1 mM Na3VO4, 250 uM KVEKIGEGTYGVVYK (Cdc2 peptide), 10 mM MgAcetate and [gamma-33P]-ATP (specific activity and concentration as required). The reaction is initiated by the addition of the Mg/ATP mix. After incubation for 40 minutes at RT, the reaction is stopped by the addition of phosphoric acid to a concentration of 0.5%. 10 uL of the reaction is then spotted onto a P30 filtermat and washed four times for 4 minutes in 0.425% phosphoric acid and once in methanol prior to drying and scintillation counting. For more details on the kinase assay procedures see: Gao, Y. et. al.; Biochem J., 451 (2): 313-328, 2013.

Chain of Lck (h) (P06239 whole entry): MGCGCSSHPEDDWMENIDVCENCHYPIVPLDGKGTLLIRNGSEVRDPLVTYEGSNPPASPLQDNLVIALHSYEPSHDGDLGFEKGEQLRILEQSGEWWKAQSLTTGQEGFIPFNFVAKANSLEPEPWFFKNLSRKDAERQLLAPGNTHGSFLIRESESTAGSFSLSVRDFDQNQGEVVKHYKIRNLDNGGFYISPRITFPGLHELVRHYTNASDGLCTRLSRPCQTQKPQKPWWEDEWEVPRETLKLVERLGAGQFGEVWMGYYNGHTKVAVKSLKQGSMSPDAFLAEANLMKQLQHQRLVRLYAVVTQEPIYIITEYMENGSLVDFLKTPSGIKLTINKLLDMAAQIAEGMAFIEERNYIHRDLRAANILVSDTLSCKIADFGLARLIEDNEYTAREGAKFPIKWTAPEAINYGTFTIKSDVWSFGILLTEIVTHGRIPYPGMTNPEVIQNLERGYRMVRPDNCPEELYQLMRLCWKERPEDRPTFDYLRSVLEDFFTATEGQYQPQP

SMILES | IC50 [1] [nM] | IC50 (Lck (h)) [nM]
Nc1nc(F)c(-c2ccc(N3CCN(CCF)CC3)cc2)cc1-c1ccc2c(c1)CCNC2=O [I-20, 6-(2-amino-6-fluoro-5-(4-(4-(2-fluoroethyl)piperazin-1-yl)phenyl)pyridin-3-yl)-3,4-dihydroisoquinolin-1(2H)-one] | 0.1 to 10 | > 1000
Nc1nc(F)c(-c2ccc(N3CCN(CC(F)F)CC3)cc2)cc1-c1ccc2c(c1)CCNC2=O [I-21, 6-(2-amino-5-(4-(4-(2,2-difluoroethyl)piperazin-1-yl)phenyl)-6-fluoropyridin-3-yl)-3,4-dihydroisoquinolin-1(2H)-one] | 0.1 to 10 | > 1000
Nc1nc(F)c(-c2ccc(N3CCOCC3)cn2)cc1-c1ccc2c(c1)CCNC2=O [I-26, 6-(6′-amino-2′-fluoro-5-morpholino-[2,3′-bipyridin]-5′-yl)-3,4-dihydroisoquinolin-1(2H)-one] | 0.1 to 10 | > 1000
CN1CCN(c2ccc(-c3cc(-c4ccc5c(c4)CCNC5=O)c(N)nc3F)nc2)CC1 [I-27, 6-(6′-amino-2′-fluoro-5-(4methylpiperazin-1-yl)-[2,3′-bipyridin]-5′-yl)-3,4dihydroisoquinolin-1(2H)-one acetate] | 0.1 to 10 | > 1000
C[Si](C)(O)c1ccc(-c2cc(-c3ccc4c(c3)CCNC4=O)c(N)nc2F)cc1 [I-28, 6-(2-amino-6-fluoro-5-(4-(hydroxydimethylsilyl)phenyl)pyridin-3-yl)-3,4-dihydroisoquinolin-1(2H)-one] | 11 to 100 | > 1000
COCCN1CCN(c2ccc(-c3cc(-c4ccc5c(c4)CCNC5=O)c(N)nc3F)cc2)CC1 [I-29, 6-(2-amino-6-fluoro-5-(4-(4-(2-methoxyethyl)piperazin-1-yl)phenyl)pyridin-3-yl)-3,4-dihydroisoquinolin-1(2H)-one] | 0.1 to 10 | > 1000

The remaining lines, values ahead:

IC50 [1] [nM] | IC50 (Lck (h)) [nM] | SMILES
0.1 to 10 | > 1000 | Nc1nc(F)c(-c2ccc(N3CCNCC3)cc2)cc1-c1ccc2c(c1)CCNC2=O [I-17, 6-(2-amino-6-fluoro-5-(4-(piperazin-1-yl)phenyl)pyridin-3-yl)-3,4-dihydroisoquinolin-1(2H)-one]
0.1 to 10 | > 1000 | CN1C[C@@H]2C[C@H]1CN2c1ccc(-c2cc(-c3ccc4c(c3)CCNC4=O)c(N)nc2F)cc1 [I-18, 6-(2-amino-6-fluoro-5-(4-(5-methyl-2,5-diazabicyclo[2.2.1]heptan-2-yl)phenyl)pyridin-3-yl)-3,4-dihydroisoquinolin-1(2H)-one]
0.1 to 10 | > 1000 | Nc1nc(F)c(-c2ccc(N3CCOCC3)cc2)cc1-c1cc2c(cc1F)C(=O)NCC2 [I-19, 6-(2-amino-6-fluoro-5-(4-morpholinophenyl)pyridin-3-yl)-7-fluoro-3,4-dihydroisoquinolin-1(2H)-one]
0.1 to 10 | > 1000 | Nc1nc(F)c(-c2ccc(OC3CCNCC3)cc2)cc1-c1ccc2c(c1)CCNC2=O [I-22, 6-(2-amino-6-fluoro-5-(4-(piperidin-4-yloxy)phenyl)pyridin-3-yl)-3,4-dihydroisoquinolin-1(2H)-one]
0.1 to 10 | > 1000 | Nc1nc(F)c(-c2ccc(N3CCN4CCOCC4C3)cc2)cc1-c1ccc2c(c1)CCNC2=O (centres unmarked) [I-23, 6-(2-amino-6-fluoro-5-(4-(hexahydropyrazino[2,1-c][1,4]oxazin-8(1H)-yl)phenyl)pyridin-3-yl)-3,4-dihydroisoquinolin-1(2H)-one]
0.1 to 10 | > 1000 | CO[C@@H](C)CN1CCN(c2ccc(-c3cc(-c4ccc5c(c4)CCNC5=O)c(N)nc3F)cc2)CC1 [I-24, (S)-6-(2-amino-6-fluoro-5-(4-(4-(2-methoxypropyl)piperazin-1-yl)phenyl)pyridin-3-yl)-3,4-dihydroisoquinolin-1(2H)-one]
0.1 to 10 | > 1000 | CO[C@H](C)CN1CCN(c2ccc(-c3cc(-c4ccc5c(c4)CCNC5=O)c(N)nc3F)cc2)CC1 [I-25, (R)-6-(2-amino-6-fluoro-5-(4-(4-(2-methoxypropyl)piperazin-1-yl)phenyl)pyridin-3-yl)-3,4-dihydroisoquinolin-1(2H)-one]
